Article PMC7475180, “The Arabidopsis TRM61/TRM6 complex is a bona fide tRNA N^1-methyladenosine methyltransferase” (Journal of Experimental Botany, 2020)

Biological target: T1, AtTRM61/AtTRM6 complex (AtTRM61-His/AtTRM6-GST) (Arabidopsis thaliana, UniProt F4K6U9)
T1 construct: gene TRM61; CDSs of AtTRM61 (pET28a+, His tag) and AtTRM6 (pGEX-4T-2, GST tag) co-expressed in E. coli, Ni-NTA purified; tag removal not mentioned; heterodimeric complex; with tRNA (adenine(58)-N(1))-methyltransferase non-catalytic subunit TRM6
T1 sequence (F4K6U9 1-318): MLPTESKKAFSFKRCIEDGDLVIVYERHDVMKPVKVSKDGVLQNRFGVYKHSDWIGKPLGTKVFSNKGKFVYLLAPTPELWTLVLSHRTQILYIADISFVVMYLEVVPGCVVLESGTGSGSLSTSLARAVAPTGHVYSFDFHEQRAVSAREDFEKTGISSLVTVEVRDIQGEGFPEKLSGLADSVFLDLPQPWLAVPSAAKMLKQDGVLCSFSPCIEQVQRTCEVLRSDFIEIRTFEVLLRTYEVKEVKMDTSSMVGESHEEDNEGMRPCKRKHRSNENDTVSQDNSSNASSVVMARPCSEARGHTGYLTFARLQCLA
T1 sequence (O80846 1-446 partner): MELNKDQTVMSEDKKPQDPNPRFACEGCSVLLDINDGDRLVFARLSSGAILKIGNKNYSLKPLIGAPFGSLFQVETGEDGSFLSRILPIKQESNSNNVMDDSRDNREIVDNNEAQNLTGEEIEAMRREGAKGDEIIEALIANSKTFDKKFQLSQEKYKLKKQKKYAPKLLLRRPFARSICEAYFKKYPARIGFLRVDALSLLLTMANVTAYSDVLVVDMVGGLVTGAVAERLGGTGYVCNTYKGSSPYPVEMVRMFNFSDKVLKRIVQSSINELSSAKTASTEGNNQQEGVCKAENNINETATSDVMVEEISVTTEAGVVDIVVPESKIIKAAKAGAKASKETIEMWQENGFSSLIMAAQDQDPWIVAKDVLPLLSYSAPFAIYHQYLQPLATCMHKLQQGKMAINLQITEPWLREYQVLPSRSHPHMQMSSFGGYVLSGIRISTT
Experiment: m1A formation on tRNA, anti-m1A immuno-northern blot
Assay type: biochemical
Settings: methyl donor, 30 mM AdoMet as printed; 150 nM RNA substrate (trm6-506 yeast tRNA or in vitro transcribed Arabidopsis tRNAiMet); 15 nM protein; 30 °C, 30 min

C[S+](CC[C@H](N)C(=O)O)C[C@H]1O[C@@H](n2cnc3c(N)ncnc32)[C@H](O)[C@@H]1O (stereo partly drawn) [S-adenosyl-L-methionine]
m1A formation on tRNA, anti-m1A immuno-northern blot: The purified complex was then incubated with a methyl donor (SAM)
